Source: patent US20110020312A1, “METHODS FOR TREATMENT OF METABOLIC DISORDERS USING EPIMETABOLIC SHIFTERS, MULTIDIMENSIONAL INTRACELLULAR MOLECULES, OR ENVIRONMENTAL INFLUENCERS” (priority 2009, published 2011)

How the values were obtained:
HepG2 cells = test: Nexin assay for apoptosis, 24 h Q10; format: cell-based; details: 50 μM Q10, 24 hours
Text: (§1) The 7AAD dye will enter into cells with permeabilized cell membranes; primarily those cells that are in late apoptosis. Annexin-V-PE is a dye that binds to Phosphotidyl serine, which is exposed on the outer surface of the plasma membrane in early apoptotic cells. The Nexin reagent thus can be used to differentiate between different populations of apoptotic cells in a flow cytometer.

MCF-7 cells = test: Nexin assay for apoptosis, 24 h Q10; format: cell-based; details: 50 μM and 100 μM Q10, 24 hours
Text: as §1

PC-3 cells = test: Nexin assay for apoptosis, 24 h Q10; format: cell-based; details: 50 μM and 100 μM Q10, 24 hours; increase less than in PaCa2
Text: as §1

[1] = tested on: Pancreatic Cancer Cells (PaCa2); test: Real-time PCR Apoptosis Array; format: cell-based; details: 100 uM Q10, various times
Experimental: Experiments were carried out essentially as described above.

[2] = tested on: HepG2 (liver cancer) cells; test: PCR Apoptosis Array; format: cell-based
Hif1 alpha = test: Western blot, Hif1 alpha levels; format: cell-based, human; details: for Hif1 alpha Lower Band Normalized Volume: HASMC
Experimental: The Actin blots were stripped by incubating for 30 minutes with methanol, followed by two 10 minute washes with TBS-T, then 30 minutes of incubation with Stripping buffer at 50 deg C., and followed by two washes with 100 ml or more of TBS-T for 30′ each. The blots were scanned in laser scanner to check for complete stripping. The blots were activated with methanol for 5 seconds, washed with water for 5 minutes, and TBST for 15 minutes. The blots were blocked for 1 hour with 5% blocking reagent in TBS-T at room temperature and then washed 3 times with TBS-T (1×-15′; 2×5′ each) and probed with the primary antibody for Hif 1 alpha, Caspase 3 or PDHB in 5% BSA (at 1:200 by incubation overnight at 4 deg C. with gentle shaking. The primary antibody for Hif 1 alpha (Abcam ab2185; antirabbit) was at 1:500 dilution in 5% BSA. The primary antibody for Caspase 3 (Santacruz sc7272; antirabbit) was at 1:200 dilution in 5% BSA. The primary antibody for Pyruvate Dehydrogenase beta (PDHB) (Novus Biologicals H00005162-M03; antimouse) was at 1:500 dilution in 5% BSA. After incubation with primary antibodies, the membranes were washed 3 times with TBS-T (1×-15′; 2×5′ each) and probed with the secondary antibody (PDHB antimouse; Hif 1a and Caspase 3 antirabbit; 1:10,000 dilution) for 1 h at room temperature. After 1 h of incubation with secondary antibodies, the blots were washed 3 times with TBS-T (1×-15′; 2×5′ each) and then incubated with ECF reagent for 5 minutes and then each blot scanned with 5100 Fuji Laser scanner at 25 uM resolution, 16 bit, green laser, at 400V and at 500 V.
The above blots were stripped by incubating for 30 minutes with methanol, followed by two 10 minute washes with TBS-T, then 30 minutes of incubation with Stripping buffer at 50 deg C., and followed by two washes with 100 ml or more of TBS-T for 30′ each. The blots were activated with methanol for 5 seconds, washed with water for 5 minutes, and TBST for 15 minutes. The blots are blocked for 1 hour with 5% blocking reagent in TBS-T at room temperature and then washed 3 times with TBS-T (1×-15′; 2×5′ each) and probed with the primary antibody for Transaldolase or Hifla in 5% BSA by incubation overnight at 4 deg C. with gentle shaking. The primary antibody for Transaldolase (Abcam ab67467; antimouse) was at 1:500 dilution. The primary antibody for Hifla (Abcam ab2185; antirabbit) was at 1:500 dilution. After incubation with primary antibodies, the membranes were washed 3 times with TBS-T (1×-15′; 2×5′ each) and probed with the secondary antibody (antimouse or antirabbit; 1:10,000 dilution) for 1 h on the orbital tilting shaker at room temperature. After 1 h of incubation with secondary antibodies, the blots were washed 3 times with TBS-T (1×-15′; 2×5′ each) and then incubated with ECF reagent for 5 minutes and then each blot scanned with 5100 Fuji Laser scanner at 25 uM resolution, 16 bit, green laser, at 400 & 500V.

HASMC cells = test: Extracellular acidification rate (ECAR), SeaHorse XF analyzer; format: cell-based, human; details: hyperglycemic HASMC cells in hypoxic conditions
Text: Environmental influencers (e.g., MIMs or Epi-shifters) may also be identified by changes in cellular energetics. One example of the measurement of cellular energetics are the real-time measures of the consumption of molecular oxygen and/or the change in pH of the media of a cell culture. For example, the ability of a potential epi-shifter to modulate the metabolic state of a cell may be analyzed using, for example, the XF24 Analyzer (Seahorse, Inc.). This technology allows for real time detection of oxygen and pH changes in a monolayer of cells in order to evaluate the bioenergetics of a cell microenvironment. The XF24 Analyzer measures and compares the rates of oxygen consumption (OCR), which is a measure of aerobic metabolism, and extracellular acidification (ECAR), which is a measure of glycolysis, both key indicators of cellular energetics.
(SeaHorse Biosciences Inc, North Billerica, Mass.).
In this experiment, the OCR and extracellular acidification rate (ECAR) in normal cells lines were obtained in the presence and absence of CoQ10 to determine baseline values. It was observed that in its native nutrient environment, the basal OCR rates in normal cells lines are different, and are usually a function of the physiological roles of the cells in the body.
In Table 52 the measured baseline ECAR values (mpH/min) in HASMC were higher compared to that of HDFa. […]

Question: For `COC1=C(OC)C(=O)C(C/C=C(\C)CC/C=C(\C)CC/C=C(\C)CC/C=C(\C)CC/C=C(\C)CC/C=C(\C)CC/C=C(\C)CC/C=C(\C)CC/C=C(\C)CCC=C(C)C)=C(C)C1=O` [Q10, Coenzyme Q10], which “increase of gated population in late and early apoptotic stages” value (HepG2 cells) is on record?
Answer: Its value is “about 20%”.

Question: And the early/late apoptotic population (MCF-7 cells)?
Answer: Its early/late apoptotic population is “increase only in early apoptotic population”.

Question: And the “early and late apoptotic population” value (PC-3 cells)?
Answer: The value was “increase in both early and late apoptotic population”.

Question: What about the “genes modulated by Q10 treatment (Apoptosis arrays)” value [1] of the same molecule?
Answer: The value was “ABL1, AKT1, Bcl2L1, BclAF1, CASP1, CASP2, CASP6, CIDEA, FADD, LTA, TNF, TNFSF10A and TNFSF10”.

Question: What about the “BAG1 mRNA downregulated over control” value ([2]; 100 uM Q10, 16 hours) of the same molecule?
Answer: Its value is “approximately 6 fold”.

Question: And the “CASP9 mRNA upregulated over control” value ([2]; 100 uM Q10, 16 hours)?
Answer: The value was “approximately 61 fold”.

Question: And the “TNFRSF1A mRNA downregulated over control” value ([2]; 100 uM Q10, 16 hours)?
Answer: The value was about 4 fold.

Question: And the “BAG1 mRNA upregulated over control” value ([2]; 100 uM Q10, 48 hours)?
Answer: Its value is about 1 fold.

Question: And the “CASP9 mRNA upregulated over control” value ([2]; 100 uM Q10, 48 hours)?
Answer: Its value is “approximately 55 fold”.

Question: And the “TNFRSF1A mRNA upregulated over control” value ([2]; 100 uM Q10, 48 hours)?
Answer: Its value is about 1 fold.

Question: And the “Hif1 alpha Lower Band Normalized Volume” value (Hif1 alpha; 5g48-50)?
Answer: Its value is 21664.

Question: What about the “Hif1 alpha Lower Band Normalized Volume” value (Hif1 alpha; 5g48-100) of the same molecule?
Answer: The value was 19540.

Question: What about the “Hif1 alpha Lower Band Normalized Volume” value (Hif1 alpha; 22G24-50) of the same molecule?
Answer: The value was 18486.

Question: What about the “Hif1 alpha Lower Band Normalized Volume” value (Hif1 alpha; 22G24-100) of the same molecule?
Answer: Its value is 17919.

Question: What about the “Hif1 alpha Lower Band Normalized Volume” value (Hif1 alpha; 22G48-50) of the same molecule?
Answer: Its value is 17496.

Question: And the “Hif1 alpha Lower Band Normalized Volume” value (Hif1 alpha; 22G48-100)?
Answer: The value was 23111.

Question: What about the “Hif1 alpha Upper Band Normalized Volume” value (Hif1 alpha; HepG2, 5g24-50) of the same molecule?
Answer: Its value is 8998.

Question: What about the “Hif1 alpha Upper Band Normalized Volume” value (Hif1 alpha; HepG2, 5g24-100) of the same molecule?
Answer: The value was 9315.

Question: What about the “Hif1 alpha Upper Band Normalized Volume” value (Hif1 alpha; HepG2, 5g48-50) of the same molecule?
Answer: Its value is 8601.

Question: And the “Hif1 alpha Upper Band Normalized Volume” value (Hif1 alpha; HepG2, 5g48-100)?
Answer: Its value is 10192.

Question: And the “Hif1 alpha Upper Band Normalized Volume” value (Hif1 alpha; HepG2, 22G24-50)?
Answer: Its value is 14089.

Question: And the “Hif1 alpha Upper Band Normalized Volume” value (Hif1 alpha; HepG2, 22G24-100)?
Answer: Its value is 8530.

Question: What about the “Hif1 alpha Upper Band Normalized Volume” value (Hif1 alpha; HepG2, 22G48-50) of the same molecule?
Answer: The value was 9416.

Question: What about the “Hif1 alpha Upper Band Normalized Volume” value (Hif1 alpha; HepG2, 22G48-100) of the same molecule?
Answer: Its value is 5608.

Question: And the “Hif1 alpha protein levels” value (Hif1 alpha; mitochondrial preparations of cancer cells)?
Answer: The value was “decreased”.

Question: And the Hif1a lower band (Hif1 alpha; whole cell lysates of normal cells)?
Answer: The Hif1a lower band was “decrease”.

Question: And the ECAR rates (HASMC cells)?
Answer: Its ECAR rates is “downward trend”.
